The record followed here is patent US11207325B2, “Triazolopyrimidine compounds and uses thereof” (Novartis AG, priority 2014, dated 2021).

The experiment deals with H3K27 methylation in G401 cell. The experiment is described as follows: ELISA (H3K27 methylation) assay. It is filed as cell-based. Conditions: Homo sapiens, G-401; ELISA Qualified assay (H3K27 methylation); read-out: (c) IC50 (μM), ELISA Qualified. The text has this:
ELISA (H3K27 Methylation) Assay
(An ELISA detects its analyte on a solid surface through an enzyme-linked reagent.)

Consider `Nc1ccc(-c2cnc(NCc3cccc4c3CCO4)n3cnnc23)cn1` [Example 48, 8-(6-aminopyridin-3-yl)-N-((2,3-dihydrobenzofuran-4-yl)methyl)-[1,2,4]triazolo[4,3-c]pyrimidin-5-amine], for which the IC50 turned out to be 0.261 µM. The result for `Cc1cc(-c2cnc(NCc3cccc4c3CCO4)n3cnnc23)ccc1C(=O)N(C)C` [Example 49, 4-(5-(((2,3-dihydrobenzofuran-4-yl)methyl)amino)-[1,2,4]triazolo[4,3-c]pyrimidin-8-yl)-N,N,2-trimethylbenzamide] reads 0.366 µM; that for `Clc1ccncc1-c1cnc(NCc2cccc3c2CCO3)n2cnnc12` [Example 50, 8-(4-chloropyridin-3-yl)-N-((2,3-dihydrobenzofuran-4-yl)methyl)-[1,2,4]triazolo[4,3-c]pyrimidin-5-amine], 0.12 µM; that for `Cc1ccc(-c2cnc(NCc3cccc4c3CCO4)n3cnnc23)cn1` [Example 52], 0.106 µM.

Regarding `CN(C)CCc1ccc(-c2cnc(NCc3cccc4c3CCO4)n3cnnc23)cn1` [Example 53, N-((2,3-dihydrobenzofuran-4-yl)methyl)-8-(6-(2-(dimethylamino)ethyl)pyridin-3-yl)-[1,2,4]triazolo[4,3-c]pyrimidin-5-amine], the IC50 worked out at 0.141 µM. `COc1ncc(-c2cnc(NCc3cccc4c3CCO4)n3cnnc23)cn1` [Example 54, N-((2,3-dihydrobenzofuran-4-yl)methyl)-8-(2-methoxypyrimidin-5-yl)-[1,2,4]triazolo[4,3-c]pyrimidin-5-amine]: the IC50 amounted to 0.144 µM. As for `CN(C)C(=O)c1ccc(-c2cnc(NCc3c(F)ccc4c3CCO4)n3cnnc23)cc1` [Example 55, 4-(5-(((5-fluoro-2,3-dihydrobenzofuran-4-yl)methyl)amino)-[1,2,4]triazolo[4,3-c]pyrimidin-8-yl)-N,N-dimethylbenzamide], the figure is 0.0131 µM; as for `CS(=O)(=O)c1ccc(-c2cnc(NCc3c(F)ccc4c3CCO4)n3cnnc23)cn1` [Example 56, N-((5-fluoro-2,3-dihydrobenzofuran-4-yl)methyl)-8-(6-(methylsulfonyl)pyridin-3-yl)-[1,2,4]triazolo[4,3-c]pyrimidin-5-amine], 0.0493 µM; as for `Cc1ccc(-c2cnc(NCc3c(F)ccc4c3CCO4)n3cnnc23)cn1` [Example 57, N-((5-fluoro-2,3-dihydrobenzofuran-4-yl)methyl)-8-(6-methylpyridin-3-yl)-[1,2,4]triazolo[4,3-c]pyrimidin-5-amine], 0.0334 µM. Turning to `Nc1cc(F)c(-c2cnc(NCc3cccc4c3CCO4)n3cnnc23)cn1` [Example 58, 8-(6-amino-4-fluoropyridin-3-yl)-N-((2,3-dihydrobenzofuran-4-yl)methyl)-[1,2,4]triazolo[4,3-c]pyrimidin-5-amine], the IC50 came to 0.124 µM. The result for `Cc1noc(C)c1-c1cnc(NCc2cccc3c2CCO3)n2cnnc12` [Example 59, N-((2,3-dihydrobenzofuran-4-yl)methyl)-8-(3,5-dimethylisoxazol-4-yl)-[1,2,4]triazolo[4,3-c]pyrimidin-5-amine] reads 0.086 µM. As for `Cc1ncc(-c2cnc(NCc3cccc4c3CCO4)n3cnnc23)cn1` [Example 60, N-((2,3-dihydrobenzofuran-4-yl)methyl)-8-(2-methylpyrimidin-5-yl)-[1,2,4]triazolo[4,3-c]pyrimidin-5-amine], the figure is 0.299 µM. The result for `CN(C)c1ccc(-c2cnc(NCc3cccc4c3CCO4)n3cnnc23)cn1` [Example 61, N-((2,3-dihydrobenzofuran-4-yl)methyl)-8-(6-(dimethylamino)pyridin-3-yl)-[1,2,4]triazolo[4,3-c]pyrimidin-5-amine] reads 0.175 µM.

As to `N#Cc1ccc(-c2cnc(NCc3cccc4c3CCO4)n3cnnc23)cn1` [Example 62, 5-(5-(((2,3-dihydrobenzofuran-4-yl)methyl)amino)-[1,2,4]triazolo[4,3-c]pyrimidin-8-yl)picolinonitrile], the half-inhibitory concentration (IC50) came to 0.339 µM. The result for `CCOc1ccc(-c2cnc(NCc3cccc4c3CCO4)n3cnnc23)cn1` [Example 63, N-((2,3-dihydrobenzofuran-4-yl)methyl)-8-(6-ethoxypyridin-3-yl)-[1,2,4]triazolo[4,3-c]pyrimidin-5-amine] reads 0.198 µM; that for `Cc1c(-c2cnc(NCc3cccc4c3CCO4)n3cnnc23)cnn1C` [Example 64, N-((2,3-dihydrobenzofuran-4-yl)methyl)-8-(1,5-dimethyl-1H-pyrazol-4-yl)-[1,2,4]triazolo[4,3-c]pyrimidin-5-amine], 0.0978 µM; that for `c1cc(CNc2ncc(-c3ccc(C4CC4)nc3)c3nncn23)c2c(c1)OCC2` [Example 65, 8-(6-cyclopropylpyridin-3-yl)-N-((2,3-dihydrobenzofuran-4-yl)methyl)-[1,2,4]triazolo[4,3-c]pyrimidin-5-amine], 0.11 µM.

With `COCCn1nc(C)c(-c2cnc(NCc3cccc4c3CCO4)n3cnnc23)c1C` [Example 66, N-((2,3-dihydrobenzofuran-4-yl)methyl)-8-(1-(2-methoxyethyl)-3,5-dimethyl-1H-pyrazol-4-yl)-[1,2,4]triazolo[4,3-c]pyrimidin-5-amine], the IC50 turned out to be 0.0803 µM. `Cc1nn(CCO)c(C)c1-c1cnc(NCc2cccc3c2CCO3)n2cnnc12` [Example 67, 2-(4-(5-(((2,3-dihydrobenzofuran-4-yl)methyl)amino)-[1,2,4]triazolo[4,3-c]pyrimidin-8-yl)-3,5-dimethyl-1H-pyrazol-1-yl)ethanol]: the IC50 came out at 0.521 µM. As for `O=C(c1ccc(-c2cnc(NCc3cccc4c3CCO4)n3cnnc23)cn1)N1CCOCC1` [Example 68, (5-(5-(((2,3-dihydrobenzofuran-4-yl)methyl)amino)-[1,2,4]triazolo[4,3-c]pyrimidin-8-yl)pyridin-2-yl)(morpholino)methanone], the figure is 0.378 µM; as for `Cc1cc(-c2cnc(NCc3cccc4c3CCO4)n3cnnc23)cnc1S(C)(=O)=O` [Example 70, N-((2,3-dihydrobenzofuran-4-yl)methyl)-8-(5-methyl-6-(methylsulfonyl)pyridin-3-yl)-[1,2,4]triazolo[4,3-c]pyrimidin-5-amine], 0.0839 µM; as for `Cc1noc(C)c1-c1cnc(NCc2c(F)ccc3c2CCO3)n2cnnc12` [Example 71, 8-(3,5-dimethylisoxazol-4-yl)-N-((5-fluoro-2,3-dihydrobenzofuran-4-yl)methyl)-[1,2,4]triazolo[4,3-c]pyrimidin-5-amine], 0.0426 µM.

In the case of `CN1CCN(C(=O)c2ccc(-c3cnc(NCc4c(F)ccc5c4CCO5)n4cnnc34)cc2)CC1` [Example 72, (4-(5-(((5-fluoro-2,3-dihydrobenzofuran-4-yl)methyl)amino)-[1,2,4]triazolo[4,3-c]pyrimidin-8-yl)phenyl)(4-methylpiperazin-1-yl)methanone], the 50% inhibitory concentration (IC50) is 0.0097 µM. The result for `Cc1cc(-c2cnc(NCc3cccc4c3CCO4)n3cnnc23)cnc1N1CCOCC1` [Example 73, N-((2,3-dihydrobenzofuran-4-yl)methyl)-8-(5-methyl-6-morpholinopyridin-3-yl)-[1,2,4]triazolo[4,3-c]pyrimidin-5-amine] reads 0.332 µM. Take `CS(=O)(=O)CCOc1ccc(-c2cnc(NCc3cccc4c3CCO4)n3cnnc23)cc1` [Example 75, N-((2,3-dihydrobenzofuran-4-yl)methyl)-8-(4-(2-(methylsulfonyl)ethoxy)phenyl)-[1,2,4]triazolo[4,3-c]pyrimidin-5-amine]: the concentration for half-maximal inhibition (IC50) came out at 0.298 µM. Turning to `Nc1ccncc1-c1cnc(NCc2cccc3c2CCO3)n2cnnc12` [Example 76, 8-(4-aminopyridin-3-yl)-N-((2,3-dihydrobenzofuran-4-yl)methyl)-[1,2,4]triazolo[4,3-c]pyrimidin-5-amine], the IC50 turned out to be 0.32 µM. As for `c1cc(CNc2ncc(-c3cncc(N4CCNCC4)c3)c3nncn23)c2c(c1)OCC2` [Example 77, N-((2,3-dihydrobenzofuran-4-yl)methyl)-8-(5-(piperazin-1-yl)pyridin-3-yl)-[1,2,4]triazolo[4,3-c]pyrimidin-5-amine], the figure is 0.581 µM.

Regarding `O=C(c1ccc(-c2cnc(NCc3cccc4c3CCO4)n3cnnc23)cn1)N1CCCC1` [Example 80, (5-(5-(((2,3-dihydrobenzofuran-4-yl)methyl)amino)-[1,2,4]triazolo[4,3-c]pyrimidin-8-yl)pyridin-2-yl)(pyrrolidin-1-yl)methanone], the IC50 came out at 0.132 µM. As for `c1cc(CNc2ncc(-c3ccc(N4CCSCC4)nc3)c3nncn23)c2c(c1)OCC2` [Example 81, N-((2,3-dihydrobenzofuran-4-yl)methyl)-8-(6-thiomorpholinopyridin-3-yl)-[1,2,4]triazolo[4,3-c]pyrimidin-5-amine], the figure is 0.155 µM.

`Cc1nn(C(C)C)cc1-c1cnc(NCc2cccc3c2CCO3)n2cnnc12` [Example 82, N-((2,3-dihydrobenzofuran-4-yl)methyl)-8-(1-isopropyl-3-methyl-1H-pyrazol-4-yl)-[1,2,4]triazolo[4,3-c]pyrimidin-5-amine]: the half-maximal inhibitory concentration (IC50) was determined as 0.107 µM. The result for `COCc1ncc(-c2cnc(NCc3cccc4c3CCO4)n3cnnc23)cc1C` [Example 83, N-((2,3-dihydrobenzofuran-4-yl)methyl)-8-(6-(methoxymethyl)-5-methylpyridin-3-yl)-[1,2,4]triazolo[4,3-c]pyrimidin-5-amine] reads 0.14 µM; that for `CC(O)c1ccc(-c2cnc(NCc3cccc4c3CCO4)n3cnnc23)cn1` (stereo not shown) [Example 84, 1-(5-(5-(((2,3-dihydrobenzofuran-4-yl)methyl)amino)-[1,2,4]triazolo[4,3-c]pyrimidin-8-yl)pyridin-2-yl)ethanol], 0.148 µM. `Fc1ccncc1-c1cnc(NCc2cccc3c2CCO3)n2cnnc12` [Example 85, N-((2,3-dihydrobenzofuran-4-yl)methyl)-8-(4-fluoropyridin-3-yl)-[1,2,4]triazolo[4,3-c]pyrimidin-5-amine]: the IC50 stood at 0.0333 µM. For the compound `COCCc1ccc(-c2cnc(NCc3cccc4c3CCO4)n3cnnc23)cn1` [Example 86, N-((2,3-dihydrobenzofuran-4-yl)methyl)-8-(6-(2-methoxyethyl)pyridin-3-yl)-[1,2,4]triazolo[4,3-c]pyrimidin-5-amine], the IC50 came out at 0.0758 µM.

Usually IC50 stands for the concentration that inhibits the measured activity by half.
